We go through 3 substances from patent publication US20100056431A1, “MEDICAL USES” (priority 2006, published 2010).

The test system of one assay is phosphorylated MAPK. Kind of assay: Competitive inhibition of LL-37 on Heregulin-induced MAPK phosphorylation in MCF7 cells (Western blot). It counts as cell-based, human. Particulars: Heregulin 2 ng/ml. Here is the method: Heregulin (2 ng/ml) was added to the breast cancer line MCF7, which produces virtually no LL-37 on its own, together with LL-37 (2 μM) and LL-25 at concentrations as indicated. In the control experiments, the solvent (PBS), or LL-37, LL-25 or heregulin (HRG) were added as the only substrates. The quantitative evaluation of triplicate measurements is shown together with the Western blot of one of the triplicates.
ZR75-1 ells were grown in Optimem and 10% FCS, and plated in 12-well plates at 100 000 cells/well, corresponding 70% confluency. After reattachment, cells were starved for 48 hours in DMEM, no FCS. Test substrate dissolved in 50 μl PBS were added to the medium, and cells were incubated for 20 min. […] The signal was captured in a CCD camera (Fuji, Tokyo, Japan) for 1 min, and evaluated by Image Gauge Software. For quantification, the signals were normalized against the Ponceau S staining that had been scanned in and quantified using the same software.
In a further experiment, Heregulin (2 ng/ml) was added to the breast cancer line MCF7, which produces virtually no LL-37 on its own, together with exogenous LL-37 (2 μM) and LL-25 at concentrations as indicated. […] The quantitative evaluation of triplicate measurements is shown together with the Western blot of one of the triplicates.

A further assay concerns phosphorylated MAPK 1/2. Kind of assay: Heregulin-induced MAPK phosphorylation in ZR75-1 cells (Western blot). It counts as cell-based, human. Particulars: ZR75-1 cells (LL-37 expressing), Heregulin 2 ng/ml, 20 min. The method, then: ZR75-1 cells were treated for 20 min with Heregulin (2 ng/ml), LL-25 or LL-37 or in combination as indicated. Protein extracts were analysed by Western blot analysis against phosphorylated MAPK.
ZR75-1 ells were grown in Optimem and 10% FCS, and plated in 12-well plates at 100 000 cells/well, corresponding 70% confluency. After reattachment, cells were starved for 48 hours in DMEM, no FCS. Test substrate dissolved in 50 μl PBS were added to the medium, and cells were incubated for 20 min. The stimulation was stopped by washing the cells with ice-cold PBS containing 1 mM NaF, 100 μM Na3VO4, and 2 mM PMSF, and then lysed in 300 μl SDS lysis buffer containing the inhibitors as above. Proteins were separated in an 8% gel, and blotted to nitrocellulose filters according to standard conditions. Filters were reversibly stained with 3% Ponceau S, blocked with 4% NFDM in TBS/0.1% Tween20, and incubated o.n. with the primary antibody. For detection of phosphorylated MAPK 1/2 (pThr 202/pTyr 204), a monoclonal antibody (Cell Signaling Inc) was used at 1/2000. […] The signal was captured in a CCD camera (Fuji, Tokyo, Japan) for 1 min, and evaluated by Image Gauge Software. For quantification, the signals were normalized against the Ponceau S staining that had been scanned in and quantified using the same software.
For orientation: A western blot detects proteins with antibodies after separation by electrophoresis.

The subject of assay [1] is HaCaT cells. Kind of assay: LL-37 peptide treatment of epithelial cells, proliferation by [3H]-Thymidine incorporation. Particulars: serum starved 72 hours, LL-37 10 μg/ml, DMEM+5% FCS, versus non treated control. In kind it is cell-based, human. Here is the method: A spontaneously immortalised human keratinocyte cell line (HaCaT) ^19 was cultured in DMEM (Dulbecco's modified Eagle's medium, Gibco BRL, Life Technologies, Scotland) supplemented with 10% FCS (fetal calf serum, Hy-Clone, Boule Nordic AB Huddinge, Sweden) and antibiotics (PEST=penicillin 50 U/l and streptomycin […], Gibco BRL). Cells were harvested at 70% confluence and seeded in 96-well plates, 2000 cells in 100 μl medium (DMEM+10% FCS and PEST). After 12 hours, medium was changed to serum free medium (DMEM+PEST) and cells were synchronized in G0/G1 by serum starvation for 72 hours and then treated with 100 μl of medium (DMEM+5% FCS+PEST) containing synthetic biologically active LL-37 peptide at 10 μg per ml. Cells treated with only DMEM+5% FCS and PEST served as control. The experiments were performed in quadruplicates. Cell proliferation was evaluated by [^3H]-Thymidine incorporation. Cells were treated with 1 μCi/well of [^3H]-Thymidine (20.00 Ci/mmol, Perkin Elmer Life Sciences Inc. Boston, Mass.) during 12 hours and harvested (Harvester 96, Tomtec, Orage, Conn.) onto a glass fiber filter (Wallac Oy Turku, Finland). The incorporation of [^3H]-Thymidine was determined using a liquid scintillation counter (Microbeta Pluss, Wallac Sveriges AB). The experiment was repeated twice in 6 replicates.
(Incorporation of labelled thymidine or its analogues reports DNA synthesis.)

Another assay deals with ERK1/2. Briefly: Assay of phosphorylated ERK1/2 in LL-37 treated HaCaT cells (Western blot). It counts as cell-based, human. Particulars: LL-37 10 μg/ml, 48 hours, 1% or 5% FCS. Here is the method:
HaCaT cells were seeded at 10% confluence and kept in DMEM with 0.2% FCS for 36 hours. For the next 48 hours, cells were cultured in DMEM with 1% or 5% FCS respectively, and in presence or absence of LL-37 at 10 μg/ml, with daily changes of medium. EGF at 10 ng/ml served as positive control. The expression of phosphorylated ERK 1/2 was evaluated by Western blot analysis with a mouse monoclonal antibody (Cell Signaling Technology, Beverly Mass.).

Assay [2] can be described thus: Antibacterial assay of synthetic LL-37 peptide. An excerpt:
LL-37 peptide was synthesised and purified by HPLC to a purity of 98% (PolyPeptide Laboratories A/S, Hillerød, Denmark). Biological activity of the peptide was confirmed in an antibacterial assay ^18.

Assay [3] has as its system HaCaT cells. Briefly: Pertussis toxin assay (LL-37 induced HaCaT cell proliferation). In kind it is cell-based, human. Particulars: pertussis toxin 20 ng/ml preincubated 24 h before LL-37 at 5 or 10 μg per ml, data not shown. The method, then: To assess the involvement of FPRL1 in mediating the stimulation of epithelial cell proliferation induced by hCAP18/LL-37, HaCaT cells were treated with the G-protein-coupled receptor inhibitor pertussis toxin. Cells were preincubated with pertussis toxin (Sigma-Aldrich, Switzerland) 24 h before the LL-37 treatment in a final toxin concentration of 20 ng/ml. Medium was changed 48 hours after cell seeding and the HaCaT cells were treated with 100 μl of medium (DMEM+5% FCS and PEST) containing synthetic biologically active LL-37 peptide at 5 or 10 μg per ml respectively. Cells treated with only DMEM+5% FCS and PEST served as control.

“Also recorded” adds a separate entry of the source.

“LLGDFFRKSKEKIGKEFKRIVQRIK (listed as Homo sapiens) [LL-25, N-terminal 25 amino acids of the C-terminal LL-37 peptide derived from human cathelicidin antimicrobial protein hCAP18]”: the “blocking of the endogenous LL-37 contribution to MAPK activation through HRG” value in the assay on phosphorylated MAPK is on record as “can significantly be blocked by LL-25”. For the same substance, the “inhibition of LL-37 on Heregulin-induced MAPK phosphorylation” value with phosphorylated MAPK (exogenous LL-37 2 μM, LL-25 at varied concentrations) is “competitive and highly efficient inhibitor to LL-37, even at 10% of the concentration of LL-37”. Besides, the “effect on MAPK phosphorylation through Heregulin” value in the assay on phosphorylated MAPK 1/2 was “inhibits MAPK phosphorylation”.
“LLGDFFRKSKEKIGKEFKRIVQRIKDFLRNLVPRTES (listed as Homo sapiens) [LL-37, C-terminal peptide of human cathelicidin antimicrobial protein hCAP18; synthesised, HPLC purity 98%]”: the “cell proliferation ([3H]-Thymidine incorporation)” value in the assay with HaCaT cells [1] was “significantly increased cell proliferation; also recorded: significant increase in cell proliferation”. For the same substance, the “activation of ERK1/2 (phosphorylated ERK1/2)” value in the assay on ERK1/2 is “no significant activation of ERK1/2”. Moreover, the “biological activity in antibacterial assay” value in assay [2] was “confirmed”.
For pertussis toxin, the “suppression of LL-37 stimulated proliferation by pertussis toxin pretreatment” value in the assay on HaCaT cells [3] is on record as “approximately 50%”.
